Assay results as given in ChEMBL document CHEMBL4342450, “Antitumor Activity of Ohmyungsamycin A through the Regulation of the Skp2-p27 Axis and MCM4 in Human Colorectal Cancer Cells” (J Nat Prod, 2020).
Calls of active or inactive are those of the source. The rule behind the calls is not given here. *1 amine or outer side, *2 acyl side, *3 side chain or, on linkers, in order; H or OH if unused. Where a SMILES comes first, the peptide text is derived from it. Bridges are numbered along the chain shown (N, C = ends). [ ]: non-standard residue; d: D form. Phe(3R-OH) = O=C([C@@H](N[*:1])[C@H](O[*:3])c1ccccc1)[*:2]; NMeTrp(4-OMe) = CN[C@@H](Cc1c[nH]c2cccc(OC)c12)C(=O)O; NMeT = CN[C@H](C(=O)O)[C@@H](C)O; NMeL = CN[C@@H](CC(C)C)C(=O)O; NMeV = CN[C@H](C(=O)O)C(C)C

Key:
HCT-116 [1] = assay: Downregulation of CCNE2 gene expression in human HCT116 cells assessed as fold change at 15 uM incubated for 24 hrs by cDNA microarray analysis relative to control; assay type: functional
HCT-116 [2] = assay: Effect on Cul1 expression in human HCT116 cells at 5 to 20 uM after 24 hrs by Western blot analysis; assay type: functional, cell-based
HCT-116 [3] = assay: Induction of cell cycle arrest in human HCT116 cells assessed as accumulation at sub-G1 phase at 10 uM incubated for 18 hrs by propidium iodide staining based flow cytometry (reference value: 0.9%); assay type: functional
HCT-116 [4] = assay: Induction of cell cycle arrest in human HCT116 cells assessed as accumulation at G2/M phase at 10 uM incubated for 24 hrs by propidium iodide staining based flow cytometry (reference value: 15.7%); assay type: functional
HCT-116 [5] = assay: Decrease in cell cycle associated protein expression in human HCT116 cells assessed as reduction in CDK2 expression at 5 to 20 uM after 24 hrs by Western blot analysis; assay type: functional, cell-based
HCT-116 [6] = assay: Induction of cell cycle arrest in human HCT116 cells assessed as accumulation at sub-G1 phase at 20 uM incubated for 18 hrs by propidium iodide staining based flow cytometry (reference value: 0.9%); assay type: functional
HCT-116 [7] = assay: Decrease in cell cycle associated protein expression in human HCT116 cells assessed as reduction in CDK6 expression at 5 to 20 uM after 24 hrs by Western blot analysis; assay type: functional, cell-based
HCT-116 [8] = assay: Antitumor activity against human HCT116 cells xenografted in BALB/c nude mouse assessed as tumor weight at 10 mg/kg, ip administered thrice a week for 3.5 weeks measured on last day (reference value: 100%); assay type: functional
HCT-116 [9] = assay: Downregulation of GINS2 gene expression in human HCT116 cells assessed as fold change at 15 uM incubated for 24 hrs by cDNA microarray analysis relative to control; assay type: functional
HCT-116 [10] = assay: Downregulation of DKK1 gene expression in human HCT116 cells assessed as fold change at 15 uM incubated for 24 hrs by cDNA microarray analysis relative to control; assay type: functional
HCT-116 [11] = assay: Induction of apoptosis in human HCT116 cells assessed as reduction in Bid level at 5 to 20 uM after 24 hrs by Western blot analysis; assay type: functional, cell-based
HCT-116 [12] = assay: Induction of cell cycle arrest in human HCT116 cells assessed as accumulation at G2/M phase at 20 uM incubated for 18 hrs by propidium iodide staining based flow cytometry (reference value: 25.1%); assay type: functional
HCT-116 [13] = assay: Effect on Skp1 expression in human HCT116 cells at 5 to 20 uM after 24 hrs by Western blot analysis; assay type: functional, cell-based
Mus musculus [14] = assay: In vivo modulation of MCM4 in tumor of BALB/c nude mouse xenografted with human HCT116 cells assessed as downregulation of MCM4 mRNA level at 5 to 10 m/kg, ip administered thrice a week for 3.5 weeks by RT-PCR method; assay type: functional, organism-based
HCT-116 [15] = assay: Induction of morphological changes in human HCT116 cells assessed as appearance of shrunken cells at 4 to 20 uM by inverted phase-contrast microscopic method; assay type: functional, cell-based
HCT-116 [16] = assay: Decrease in cell cycle associated protein expression in human HCT116 cells assessed as reduction in cyclin D1 expression at 5 to 20 uM after 24 hrs by Western blot analysis; assay type: functional, cell-based
MRC5 = assay: Antiproliferative activity against human MRC5 cells after 72 hrs by sulforhodamine B assay; assay type: cell-based; conditions: MRC5, 72 h
HCT-116 [17] = assay: Modulation of Skp2-p27 Axis in human HCT116 cells assessed as upregulation of p27 expression after 24 hrs by Western blot analysis; assay type: functional, cell-based
HCT-116 [18] = assay: Decrease in cell cycle associated protein expression in human HCT116 cells assessed as reduction in CDK4 expression at 5 to 20 uM after 24 hrs by Western blot analysis; assay type: functional, cell-based
Mus musculus [19] = assay: In vivo modulation of Skp2-p27 axis in tumor of BALB/c mouse xenografted with human HCT116 cells assessed as upregulation of p27 mRNA level at 5 to 10 m/kg, ip administered thrice a week for 3.5 weeks by RT-PCR method; assay type: functional, organism-based
HCT-116 [20] = assay: Downregulation of BMP4 gene expression in human HCT116 cells assessed as fold change at 15 uM incubated for 24 hrs by cDNA microarray analysis relative to control; assay type: functional
HCT-116 [21] = assay: Modulation of Skp2-p27 Axis in human HCT116 cells assessed as reduction in Skp2 mRNA level at 5 to 20 uM after 12 hrs by real-time PCR method; assay type: functional, cell-based
HCT-116 [22] = assay: Induction of cell cycle arrest in human HCT116 cells assessed as accumulation at G2/M phase at 20 uM incubated for 24 hrs by propidium iodide staining based flow cytometry (reference value: 15.7%); assay type: functional
HCT-116 [23] = assay: Induction of cell cycle arrest in human HCT116 cells assessed as accumulation at G0/G1 phase at 20 uM incubated for 18 hrs by propidium iodide staining based flow cytometry (reference value: 43.3%); assay type: functional
HCT-116 [24] = assay: Induction of cell cycle arrest in human HCT116 cells assessed as accumulation at G2/M phase at 5 uM incubated for 18 hrs by propidium iodide staining based flow cytometry (reference value: 25.1%); assay type: functional
HCT-116 [25] = assay: Induction of cell cycle arrest in human HCT116 cells assessed as accumulation at S phase at 20 uM incubated for 24 hrs by propidium iodide staining based flow cytometry (reference value: 21.2%); assay type: functional
HCT-116 [26] = assay: Downregulation of HIST1H2BM gene expression in human HCT116 cells assessed as fold change at 15 uM incubated for 24 hrs by cDNA microarray analysis relative to control; assay type: functional
HCT-116 [27] = assay: Downregulation of FAM111B gene expression in human HCT116 cells assessed as fold change at 15 uM incubated for 24 hrs by cDNA microarray analysis relative to control; assay type: functional
HCT-116 [28] = assay: Downregulation of cyclin E2 mRNA expression in human HCT116 cells after 12 hrs by RT-PCR method; assay type: functional, cell-based
HCT-116 [29] = assay: Induction of cell cycle arrest in human HCT116 cells assessed as accumulation at S phase at 20 uM incubated for 18 hrs by propidium iodide staining based flow cytometry (reference value: 26.8%); assay type: functional
HCT-116 [30] = assay: Downregulation of SKP2 gene expression in human HCT116 cells assessed as fold change at 15 uM incubated for 24 hrs by cDNA microarray analysis relative to control; assay type: functional
HCT-116 [31] = assay: Induction of cell cycle arrest in human HCT116 cells assessed as accumulation at sub-G1 phase at 5 uM incubated for 18 hrs by propidium iodide staining based flow cytometry (reference value: 0.9%); assay type: functional
[32] = Toxicity in BALB/c nude mouse assessed as changes in body weight at 5 to 10 mg/kg, ip administered thrice a week for 3.5 weeks; assay type: organism-based; conditions: in vivo, 588 h
HCT-116 [33] = assay: Induction of cell cycle arrest in human HCT116 cells assessed as accumulation at sub-G1 phase at 20 uM incubated for 24 hrs by propidium iodide staining based flow cytometry (reference value: 4.8%); assay type: functional
HCT-116 [34] = assay: Antitumor activity against human HCT116 cells xenografted in BALB/c nude mouse assessed as reduction in tumor volume at 5 to 10 mg/kg, ip administered thrice a week for 3.5 weeks and measured […] by caliper method; assay type: functional, organism-based

CN[C@H](C(=O)N[C@H](C(=O)N[C@@H]1C(=O)N(C)[C@@H]([C@@H](C)O)C(=O)N[C@@H](C(C)C)C(=O)N(C)[C@@H](CC(C)C)C(=O)N[C@@H](C(C)C)C(=O)N(C)[C@@H](C(C)C)C(=O)N(C)[C@@H](Cc2c[nH]c3cccc(OC)c23)C(=O)N[C@@H](C(C)C)C(=O)N[C@@H]([C@H](O)c2ccccc2)C(=O)N[C@@H](C(C)C)C(=O)O[C@@H]1C)C(C)C)C(C)C (H-[NMeV]VT[NMeT]V[NMeL]V[NMeV][NMeTrp(4-OMe)]V[Phe(3R-OH)]V; ester 3-C)
fold change (FC) (HCT-116 [1]): 4.613
Activity (HCT-116 [2]): inactive
Activity (HCT-116 [3]): 1.8%
Activity (HCT-116 [4]): 16.1%
inhibition (HCT-116 [5]): Active
Activity (HCT-116 [6]): 7.1%
inhibition (HCT-116 [7]): Active
Activity (HCT-116 [8]): 47.9%
fold change (FC) (HCT-116 [9]): 7.45
fold change (FC) (HCT-116 [10]): 4.144
Activity (HCT-116 [11]): Active
Activity (HCT-116 [12]): 16.9%
Activity (HCT-116 [13]): inactive
inhibition (Mus musculus [14]): Active
Activity (HCT-116 [15]): Active
inhibition (HCT-116 [16]): Active
IC50 (MRC5): > 50 µM
Activity (HCT-116 [17]): Dose-dependent effect
inhibition (HCT-116 [18]): Active
Activity (Mus musculus [19]): Active
fold change (FC) (HCT-116 [20]): 4.773
inhibition (HCT-116 [21]): Active
Activity (HCT-116 [22]): 10.8%
Activity (HCT-116 [23]): 55.4%
Activity (HCT-116 [24]): 22.3%
Activity (HCT-116 [25]): 24.1%
fold change (FC) (HCT-116 [26]): 7.527
fold change (FC) (HCT-116 [27]): 7.557
inhibition (HCT-116 [28]): Dose-dependent effect
Activity (HCT-116 [29]): 16%
fold change (FC) (HCT-116 [30]): 4.898
Activity (HCT-116 [31]): 1.4%
Activity [32]: Non-Toxic
Activity (HCT-116 [33]): 31.4%
Activity (HCT-116 [34]): Active
